Results: patent publication US20230190707A1, “COMPOSITIONS AND METHODS FOR ENHANCING CANCER IMMUNOTHERAPY” (FRED HUTCHINSON CANCER CENTER, priority 2020, published 2023)
Like-named read-outs stand apart in the source and are kept apart here.

What was measured:
donor T cells = experiment: CFSE adoptive T cell transfer with in vivo splicing modulator treatment
Protocol: Splenic T cells were obtained from B6 or CD45.1 donors by CD5 positive selection (Miltenyi Biotec, Cat. 130-049-301), labeled with CellTrace CFSE (ThermoFisher Cat. C34570) at 10 μM, and adoptively transferred by tail vein injection into lethally irradiated B6, Balb/c, or LP/J recipients, with […] labeled donor T cells transferred per recipient. All recipients were irradiated on day −1 prior to adoptive T cell transfer with 7 Gy as a single fraction and continuously received splicing inhibitor drugs or vehicle control at the indicated doses, from day −1 until day of sacrifice, with the initial dose of drug at least 4 hours after lethal irradiation. Indisulam and MS-023 were solubilized for in vivo administration and animals were treated as above. Pladienolide B (Tocris, Cat. 6070) and GEX1A (Cayman Chemicals, Cat. 25136) were both dissolved in vehicle (10% ethanol and 4% Tween-80 in sterile PBS) and administered i.p., with pladienolide B dosed at 10 mg/kg every other day, and GEX1A dosed at 1.25 mg/kg every four days. For in vivo use, EPZ015666 was dissolved in DMSO and solubilized in 0.5% methylcellulose in water to 20 mg/mL; animals were treated daily with 200 mg/kg by oral gavage.

[1] = tested on: bone marrow hematopoietic stem and progenitor cells; experiment: M3434 methylcellulose colony assay; assay type: cell-based, mouse
Protocol: 25,000 red blood cell-lysed bone marrow mononuclear cells from C57BL/6 mice were plated in duplicates or triplicates in each well of a non-tissue-culture treated 6 well plate with M3434 methylcellulose media in the presence of splicing drugs at the indicated concentrations as per manufacturer's instructions (StemCell Technologies, Cat. 03434) and incubated for seven days prior to quantification of colonies by manual microscopy.

CD5^+ splenic T cells = experiment: Anti-CD3/CD28 T cell activation and proliferation (CFSE); assay type: cell-based, mouse; details: three days of continuous drug exposure
Protocol: Cell lines were grown with half-log10 concentrations of the indicated drug in 4 to 8 technical replicates under standard conditions until the control condition (DMSO or vehicle) was confluent by microscopy. For tumor cell lines, viable cells were quantified via the CellTiter-Glo® assay (Promega Cat. G7573) as per manufacturer instructions. For the ex vivo proliferation of T cells, viable cells were instead quantified via flow cytometry using counting beads. The percentage or number of viable cells with drug treatment was calculated relative to DMSO control (as 100%). […] For absolute cell number, Annexin V+, CD25+, and PD1+ flow cytometry data presented in Figure S4, dose-response models and IC50 values were computed using the R language's dre package (Ritz, C., et al. (2015). Dose-Response Analysis Using R. PLoS One 10, e0146021).
(§1) Plates were coated with 10 μg/mL anti-CD3 (clone 145-2C11, Biolegend Cat. 100302) and 2 μg/mL anti-CD28 (clone 37.51, Biolegend Cat. 102102) in PBS overnight at 4° C. and washed twice with cold PBS prior to use. CFSE-labeled CD5-selected splenic T cells from naïve C57BL/6J mice were obtained identically as for adoptive cell transfer, and 5×10^4 cells incubated with coated plates in the presence of splicing inhibitor drugs at the indicated concentrations, followed by analysis by standard flow cytometry on day 3. Of note, for RNA-seq analyses, T cells were not labeled with CFSE, and underwent activation for 4 days (96 hours) in the presence of various splicing modulator drugs to harmonize experimental conditions with RNA-seq analyses of tumors treated with splicing inhibitors. For the RNA-seq experiments only, T cells in all conditions were also incubated with IL-2 at 50 U/mL to maximize viability and yield.

[2] = tested on: T cells stimulated with anti-CD3 and CD28 antibodies; experiment: Gene expression program of activated T cells (RNA-seq); assay type: cell-based, mouse; details: ex vivo anti-CD3 and CD28 stimulation in presence of drug
Protocol: as §1
Bulk lung and colon were homogenized using a Qiagen TissueRuptor. For all tissues and cell types, RNA was extracted using an RNeasy kit (Qiagen, Frederick, Md.) and quantified using a NanoDrop 8000 (ThermoFisher Scientific). A minimum of 500 ng of high-quality RNA (as determined by Agilent Bioanalyzer) per sample or replicate was used for library preparation. Poly(A)-selected, strand-specific (dUTP method) Illumina libraries were prepared with a modified TruSeq protocol and sequenced on the Illumina HiSeq 2000 (˜100M 2×101 bp paired-end reads per sample or replicate).

Compound	in vivo T cell proliferation or activation in response to alloantigen (donor T cells; mouse, in vivo)	hematopoiesis (colony formation) [1]	IC50 values, T cell proliferation following stimulation (in words) (CD5^+ splenic T cells)	in vivo T cell proliferation or activation in response to alloantigen (donor T cells; CD45.1 T cells into irradiated Balb/c or LP/J recipients, daily treatment)	genes normally upregulated upon T cell activation [2]	hematopoiesis (colony formation) ([1]; micromolar doses, pladienolide B at nanomolar concentrations)
O=C(NC[C@H](O)CN1CCc2ccccc2C1)c1cc(NC2COC2)ncn1 [EPZ015666]	minimal impairment	suppressed hematopoiesis				
CO[C@H]([C@@H](C)[C@H]1O[C@]1(C)C[C@H](C)/C=C/C=C(\C)[C@H]1O[C@@H](CC(=O)O)CC[C@@H]1C)[C@@H](C)O [GEX1A, herboxidiene]			low nanomolar range			
pladienolide B			low nanomolar range	markedly suppressed T cell proliferation	markedly attenuated	even more profoundly suppressed hematopoiesis
